From patent US9226503B2, “Composition and method for attraction of emerald ash borer Agrilus planipennis fairmaire (coleoptera: buprestidae)” (Her Majesty the Queen in Right of Canada, as represented by …, priority 2011, dated 2016)

Columns and labels:
A. planipennis antennae = test: GC-EAD analysis; design: species or system Agrilus planipennis; details: synthetic mixture of (3E)- and (3Z)-lactones
Experimental: A Varian CP-3380 gas chromatograph with FID detector was modified for use with a GC-EAD signal recording device (IDAC-232). EAG data were analyzed using Syntech GC-EAD software v.2.6 (SYNTECH, The Netherlands). The column used for analysis was a Supelco SPB-5 capillary (30 m×0.32 mm×0.25 μm film) in the splitless mode with helium as carrier gas. The injection port was at 220° C. and the oven temperature was programmed from 70° C., held for 1 min and then increased at 10° C./min to 240° C. and held for 30 min. A number of GC-EAD runs on male and female volatiles were carried out. Both the (3Z)-lactone and (3E)-lactone were diluted to 10 μg/ml in hexane; 1 μl of diluted pheromone was injected for each GC-EAD run.
Ten nanograms was injected for the GC-EAD analysis consisting of 90% (3Z)-lactone and 10% (3E)-lactone using a DB-1 (15 m×0.25 mm ID, 1 μm film) capillary column (J&W Scientific, Folsom, Calif.). The GC oven temperature program was 50° C. for 1 min, then increased at 20° C./min and held at 280° C. for 2 min. The GC-EAD responses of five male and five female EAB antennae were analyzed.

A. planipennis = test: Field trapping experiment 3 (2010), green sticky prism traps, Ontario and Michigan; format: in vivo, Agrilus planipennis; details: lactone alone
Experimental: Field trapping. Three trapping experiments were carried out in green ash plantations (F. pennsylvanica Marsch) with low-to-moderate A. planipennis populations about 40 km southeast of Sarnia, Ontario (42° 58′ 0 N, 82° 24′ 0 W) in 2008, 2009 and 2010. Trees at these sites were generally healthy in appearance with low or no signs of decline, and only a small number of trees had obvious signs/symptoms of infestation by A. planipennis. In Ontario sites, trees were 20-25 years old, 4-6 m tall, 10-15 cm in diameter, and spaced about 2 m apart within a row and 2.5 m between rows. In 2010, the trapping experiment was replicated at four sites in Michigan, USA, in addition to the sites in Ontario. Sites in Michigan were 10-100 years old, 10-30 m tall, 15-70 cm in diameter, and located in a mixed woodlot. […] Traps were checked every 2 weeks and A. planipennis were collected, counted and sexed. […]
The effect of each attractant on mean catch of female and male A. planipennis was analyzed independently using ANOVA and a randomized complete block design. Sites were analyzed separately in 2009 due to differences in sex ratios. In 2010, sites in Ontario were analyzed separately from those in Michigan due to the considerable differences in stand conditions and height of traps with respect to the ash canopy. […]

O=C1C/C=C/CCCCCCCCO1 [(3E)-lactone, (3E)-dodecen-12-olide]
GC-FID/EAD responses of male and female antennae (A. planipennis antennae): significant responses
trap catch compared to unbaited control (A. planipennis; green traps, 2010, Ontario and Michigan): did not affect trap catch

O=C1C/C=C\CCCCCCCCO1 [(3Z)-lactone, (3Z)-dodecen-12-olide]
GC-FID/EAD responses of male and female antennae (A. planipennis antennae): significant responses
trap captures compared to unbaited control, sites in Ontario (A. planipennis; green traps in the canopy, Ontario, P<0.02): slight increase in trap captures
